From patent US5179084A, “Antiviral phosphoric acid esters of oxetanocins” (Nippon Kayaku Kabushiki Kaisha, priority 1989, dated 1993)
Values after ≈ are worked out from the molar mass of the structure shown.

How the values were obtained:
[1] = tested on: cytomegalovirus (A0169 strain); assay: Anti-cytomegalovirus activity, plaque formation in human fetal fibroblasts; assay type: cell-based; settings: Human betaherpesvirus 5, Fibroblast, 240 h, 100 PFU, 37° C., 10 days, read-out: Anti-cytomegalovirus Activity ED50 (50% inhibitory value)
Protocol: Anti-cytomegalovirus activity was determined by the following manner. A 35 mm.PHI. dish containing a single layer of human fetal fibroblasts was infected with 100 PFU (plaque forming units) of cytomegalovirus (A0169 strain). After adsorption for one hour, a medium (0.5% agarose, 2% fetal calf serum) containing a varied concentration of the compound of the present invention was superposed thereon, and the whole was cultured at 37° C. for 10 days in 5% (v/v) carbon dioxide incubator, after which the formation of plaque was measured. The results are shown in Table 3 in terms of 50% inhibitory value (ED50).

HIV = assay: Anti-HIV activity in MT-4 cells, development of virus antigen by indirect fluorescent antibody method; assay type: cell-based; settings: for EC50: Human immunodeficiency virus 1, MT4, 96 h, MT-4 cells, 4 days culture after HIV infection, read-out: Development of Virus Antigen Activity ED50; for anti-HIV activity (in words): summary of results
Protocol: MT-4 cell (about 10,000 cells/ml) was added to a 24 well tray, and then 100 μl of a solution containing a predetermined quantity of Compound No. 1 of the present invention was added. After culturing at 37° C. for 5 hours in 5% (v/v) carbon dioxide incubator, 10^3 to 10^4 infection units of HIV was added and cultured for 4 days. Then, a part of the cultured fluid was coated onto a slide glass and immobilized with acetone, after which development of virus antigen was observed by indirect fluorescent antibody method.
As the primary antibody of the fluorescent antibody method, a serum of AIDS patient was used. As its secondary antibody, FITC-labelled […] was used.

[2] = tested on: DNA virus such as cytomegalovirus, hepatitis B virus, herpes virus; assay: Antiviral activity (summary statement); settings: summary of results
[3] = biological target: HBV-intrinsic DNA polymerase (Hepatitis B virus adr4, UniProt P12933); assay: Inhibitory activity on HBV-intrinsic DNA polymerase, HBV core particles from HB611 cells; assay type: biochemical
Protocol: 1. Partial purification of HBV core particles
After HB611 cells were homogenized with buffer solution for extraction shown below, the centrifugal supernatant (14000 rpm, 0° C., 30 minutes) was overlaid on 30% saccharose-containing buffer solution for extraction, which was subjected to supercentrifugation (35000 rpm, 4° C., 18 hours) to give crude core particle precipitates. The crude core particles were suspended in the buffer solution for extraction and purified by cesium chloride density-gradient centrifugation method to give partially purified core particles showing a density of 1.30 to 1.35 g/ml.
Buffer solution for extraction:
2-mercaptoethanol/1 mM PMSF): 10 mM
Tris-hydrochloride (pH 7.4), 1 mM EDTA, 10 mM
2. Measurement of HBV-intrinsic polymerase activity
The partially purified core particles were added to the reaction solution shown below. After incubating at 37° C. for 2 hours in the presence of Compound No. 3 in various concentrations, dCTP was added thereto in a final concentration of 1 mM. After incubation at 37° C. for an additional an hour, proteinase K, SDS, EDTA and tRNA were added thereto in final concentrations of 0.5 mg/ml, 1%, 10 mM and 200 μg/ml, respectively, followed by incubation at 45° C. for 2 hours. Thereafter HBV-DNA was purified by phenolchloroform extraction and ethanol precipitation and then subjected to electrophoresis with 1.5% agarose. Radioactive uptake in HBV-DNA was determined by autoradiography. The autoradiogram was scanned by a densitometer to calculate the inhibitory activity of Compound No. 3 against HBV-DNA polymerase.
Reaction solution: containing 50 mM Tris-hydrochloride
(pH 7.4), 30 mM magnesium chloride, 0.1 M
ammonium chloride, 0.2% 2-mercaptoethanol,
200 μM each of dATP, dGTP and dTTP

[4] = biological target: T1, reverse transcriptase (RTase) of HIV (Human immunodeficiency virus type 1 group M subtype B, UniProt P04585); assay: Inhibition of HIV reverse transcriptase (RTase), 3H-AMP uptake; assay type: biochemical, human immunodeficiency virus (HTLV-IIIB)
T1 construct: Measurement of Activity of Reverse Transcriptase (RTase) of HIV; endogenous in cells; host or cells: MOLT-4/HTLV-IIIB cells persistently infected with HIV (viral protein made by the infection; crude lysate)
Protocol: Measurement of Activity of Reverse Transcriptase (RTase) of HIV
MOLT-4/HTLV-IIIB cells which were persistently infected with HIV were destroyed with Triton X-100 or the like to prepare crude enzyme (RTase).
Using poly(dT) and oligo(dA) as template primers, the following reaction solution was used.
2. Composition of reaction solution
______________________________________
5 mg/ml Bovine serum albumin
1M Tris-HCl buffer (pH 7.8)
100 mM Dithiothreitol 2.0
5 units/ml Oligo(dA) 4.0
Uptake of ^3 H-AMP in the acid-insoluble fraction in the reaction solution under the above conditions was determined by a liquid scintillation counter.

Chain of HBV-intrinsic DNA polymerase (P12933 whole entry): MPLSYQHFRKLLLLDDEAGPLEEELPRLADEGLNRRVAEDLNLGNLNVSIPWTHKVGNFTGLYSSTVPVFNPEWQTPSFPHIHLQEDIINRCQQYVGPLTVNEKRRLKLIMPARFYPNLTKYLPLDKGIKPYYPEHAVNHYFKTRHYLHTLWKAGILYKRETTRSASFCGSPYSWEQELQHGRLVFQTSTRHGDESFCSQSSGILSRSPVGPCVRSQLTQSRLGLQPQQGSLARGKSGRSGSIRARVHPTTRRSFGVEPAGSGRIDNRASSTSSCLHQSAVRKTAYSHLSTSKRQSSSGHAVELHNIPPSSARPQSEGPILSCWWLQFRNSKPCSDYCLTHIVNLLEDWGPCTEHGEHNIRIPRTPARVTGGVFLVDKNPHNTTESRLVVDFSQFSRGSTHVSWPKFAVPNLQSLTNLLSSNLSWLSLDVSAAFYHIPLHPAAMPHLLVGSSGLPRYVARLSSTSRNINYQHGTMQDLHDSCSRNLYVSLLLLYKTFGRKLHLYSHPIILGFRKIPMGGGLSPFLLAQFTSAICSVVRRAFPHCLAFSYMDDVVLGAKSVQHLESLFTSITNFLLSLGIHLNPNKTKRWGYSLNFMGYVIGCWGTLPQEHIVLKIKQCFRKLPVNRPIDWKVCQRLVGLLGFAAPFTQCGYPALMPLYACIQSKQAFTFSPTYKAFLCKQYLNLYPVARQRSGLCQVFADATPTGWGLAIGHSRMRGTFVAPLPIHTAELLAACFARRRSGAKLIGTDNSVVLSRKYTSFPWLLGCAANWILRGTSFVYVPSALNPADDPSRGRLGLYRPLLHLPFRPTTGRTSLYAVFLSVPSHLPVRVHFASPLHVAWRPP

Nc1ncnc2c1ncn2[C@@H]1O[C@H](COP(=O)(O)O)[C@H]1CO [Compound No. 1]
EC50 [1]: 1.85 µg/mL (≈ 5.59 µM)
EC50 (HIV): 0.1 µg/mL (≈ 0.302 µM)
anti-HIV activity (in words) (HIV): excellent anti-HIV activity

Nc1nc2c(ncn2[C@@H]2O[C@H](COP(=O)(O)O)[C@H]2CO)c(=O)[nH]1 [Compound No. 5]
EC50 [1]: 0.4 µg/mL (≈ 1.15 µM)
antiviral activity against DNA virus (in words) [2]: excellent antiviral activity against DNA virus

Nc1nc2c(ncn2[C@@H]2O[C@H](COP(=O)(O)OP(=O)(O)OP(=O)(O)O)[C@H]2CO)c(=O)[nH]1 [Compound No. 3]
inhibition at 100 µM ([3]; 100 μM, read-out: Inhibition Rate (HBV-DNA polymerase)): 50.7%
inhibition at 200 µM ([3]; 200 μM, read-out: Inhibition Rate (HBV-DNA polymerase)): 88.8%
inhibition at 400 µM ([3]; 400 μM, read-out: Inhibition Rate (HBV-DNA polymerase)): 96.8%
inhibition of DNA polymerase of DNA virus (in words) ([3]; summary of results, 'the aforesaid DNA virus'): inhibits DNA polymerase of the aforesaid DNA virus

Nc1ncnc2c1ncn2[C@H]1C[C@@H](COP(=O)(O)O)O1 [Compound No. 6]
EC50 (HIV): 0.007 µg/mL (≈ 0.0232 µM)
anti-HIV activity (in words) (HIV): excellent anti-HIV activity

Nc1ncnc2c1ncn2[C@@H]1O[C@H](COP(=O)(O)OP(=O)(O)OP(=O)(O)O)[C@H]1CO [Compound No. 2]
inhibition at 4.17 µM ([4]; 4.17 μM, 37° C., 1 hour): 1%
inhibition at 12.5 µM ([4]; 12.5 μM, 37° C., 1 hour): 33.9%
inhibition at 125 µM ([4]; 125 μM, 37° C., 1 hour): 93%
inhibition at 417 µM ([4]; 417 μM, 37° C., 1 hour): 98.8%
inhibition at 42.7 µM ([4]; read-out: RTase Inhibition (%)): 69.4%
reverse transcriptase inhibitory action of HIV (in words) ([4]; summary of results): shows reverse transcriptase inhibitory action of HIV
